The record followed here is patent US8513162B2, “Halogen-containing organosulfur compound and use thereof” (Sumitomo Chemical Company, Limited, priority 2008, dated 2013).

Common to all, as to format: in vivo
Assay [1] has as its system Culex pipiens pallens. Briefly: Test Example 6: Culex pipiens pallens larvae in treated water. As to conditions: 24 h, read-out: pest death rate. The protocol:
A formulation of any one of the present compounds (4), (5), (6), (7), (8), (9), (11), (12), (15), (16), (18), (19), (20), (21), (22), and (26) obtained in Formulation Example 5 was diluted with water to prepare a test solution having 500 ppm of the active ingredient.
To 100 mL of ion-exchanged water, 0.7 ml of the test solution was added (active ingredient concentration: 3.5 ppm). Into the solution, 20 last-instar larvae of Culex pipiens pallens were released. After 1 day, the number of surviving or dead Culex pipiens pallens was counted and the death rate of the pest was calculated.

The subject of assay [2] is Blattalla germanica. Briefly: Test Example 5: filter paper with sucrose bait, Blattalla germanica. The settings on record: 144 h; 500 ppm active ingredient, 0.7 ml on filter paper; 2 male imagoes of Blattalla germanica; after 6 days; read-out: pest death rate. The protocol: A formulation of any one of the present compounds (4), (5), (6), (8), (12), (15), (16), (18), (22), (23) and (24) obtained in Formulation Example 5 was diluted with water to prepare a test solution having 500 ppm of the active ingredient.
A filter paper having a diameter of 5.5 cm was spread on the bottom of a polyethylene cup having a diameter of 5.5 cm and 0.7 ml of the test solution was added dropwise onto the filter paper. As a bait, 30 mg of sucrose was uniformly placed on the filter paper. Into the polyethylene cup, 2 male imagoes of Blattalla germanica were released and the cup was sealed with a lid. After 6 days, the number of surviving or dead Blattalla germanica was counted and the death rate of the pest was calculated.

Assay [3] has as its system Musca domestica. Briefly: Test Example 4: filter paper with sucrose bait, Musca domestica. The settings on record: 24 h, read-out: pest death rate. The protocol:
A formulation of any one of the present compounds (1), (4), (6), (7), (9), (10), (11), (12), (13), (15), (16), (17), (18), (19), (20), (21), (22), (24), (25) and (26) obtained in Formulation Example 5 was diluted with water to prepare a test solution having 500 ppm of the active ingredient.
A filter paper having a diameter of 5.5 cm was spread on the bottom of a polyethylene cup having a diameter of 5.5 cm and 0.7 ml of the test solution was added dropwise onto the filter paper. As a bait, 30 mg of sucrose was uniformly placed on the filter paper. Into the polyethylene cup, 10 female imagoes of Musca domestica were released and the cup was sealed with a lid. After 24 hours, the number of surviving or dead Musca domestica was counted and the death rate of the pest was calculated.

For the compound `N#CC(CCC(F)(F)C(F)(F)F)S(=O)(=O)CC1CCCCO1` (single isomer, unassigned) [present compound (22), 5,5,6,6,6-pentafluoro-2-(tetrahydropyran-2-ylmethanesulfonyl)hexanenitrile], the pest or weed control at 3.5 ppm in assay [1] is at least 95%. Further, the pest or weed control at 500 ppm was 100% in assay [2] and at least 90% in assay [3].
In the case of `C#CCC1CCC(CSCCC(F)(F)F)O1` (single isomer, unassigned) [present compound (23), 2-(prop-2-ynyl)-5-(3,3,3-trifluoropropylthiomethyl)tetrahydrofuran], in assay [2], the pest or weed control at 500 ppm turned out to be 100%.
As to `C#CCC1CCC(CS(=O)(=O)CCC(F)(F)F)O1` (single isomer, unassigned) [present compound (24), 2-(prop-2-ynyl)-5-(3,3,3-trifluoropropanesulfonylmethyl)tetrahydrofuran], the values for the pest or weed control at 500 ppm in assay [2] and in assay [3] were 100% and at least 90%, respectively.
`CCOC(=O)N1CCC(C(C#N)S(=O)(=O)CCC(F)(F)F)CC1` (centres unmarked) [present compound (1), 2-[N-(ethoxycarbonyl)piperidin-4-yl]-2-(3,3,3-trifluoropropylsulfonyl)acetonitrile]: the pest or weed control at 500 ppm in assay [3] was at least 90%.
As for `N#CC(C1CCSCC1)S(=O)(=O)CCC(F)(F)F` (centres unmarked) [present compound (4), 2-(tetrahydrothiopyran-4-yl)-2-(3,3,3-trifluoropropylsulfonyl)acetonitrile], the pest or weed control at 3.5 ppm in assay [1] was at least 95%. The values for the pest or weed control at 500 ppm in assay [2] and in assay [3] were 100% and at least 90%, respectively.
In the case of `N#CC(C1CC[S+]([O-])CC1)S(=O)(=O)CCC(F)(F)F` (centres unmarked) [present compound (5), 2-(1-oxo-1λ^4-tetrahydrothiopyran-4-yl)-2-(3,3,3-trifluoropropylsulfonyl)acetonitrile], in assay [1], the pest or weed control at 3.5 ppm is at least 95%. Besides, in assay [2], the pest or weed control at 500 ppm came to 100%.
Regarding `N#CC(C1CCS(=O)(=O)CC1)S(=O)(=O)CCC(F)(F)F` (centres unmarked) [present compound (6), 2-(1,1-dioxo-1λ^4-tetrahydrothiopyran-4-yl)-2-(3,3,3-trifluoropropylsulfonyl)acetonitrile], the pest or weed control at 3.5 ppm in assay [1] was at least 95%. In addition, the pest or weed control at 500 ppm is 100% in assay [2] and at least 90% in assay [3].
For the compound `N#CC(C1CCSC1)S(=O)(=O)CCC(F)(F)F` (centres unmarked) [present compound (7), 2-(tetrahydrothiophen-3-yl)-2-(3,3,3-trifluoropropylsulfonyl)acetonitrile], in assay [1], the pest or weed control at 3.5 ppm was at least 95%. Also, the pest or weed control at 500 ppm in assay [3] was at least 90%.
With `N#CC(C1CC[S+]([O-])C1)S(=O)(=O)CCC(F)(F)F` (centres unmarked) [present compound (8), 2-(1-oxo-1λ^4-tetrahydrothiophen-3-yl)-2-(3,3,3-trifluoropropylsulfonyl)acetonitrile], in assay [1], the pest or weed control at 3.5 ppm is at least 95%. The pest or weed control at 500 ppm in assay [2] stood at 100%.
In the case of `N#CC(CC1CCCO1)S(=O)(=O)CCC(F)(F)F` (centres unmarked) [present compound (10), 3-(2-tetrahydrofuran-2-yl)-2-(3,3,3-trifluoropropylsulfonyl)propionitrile], the pest or weed control at 500 ppm in assay [3] is at least 90%.
Regarding `N#CC(CC1CCOC1)S(=O)(=O)CCC(F)(F)F` (centres unmarked) [present compound (11), 3-(tetrahydrofuran-3-yl)-2-(3,3,3-trifluoropropylsulfonyl)propionitrile], the pest or weed control at 3.5 ppm in assay [1] is at least 95%. Also, the pest or weed control at 500 ppm in assay [3] was at least 90%.
For `N#CC(CC1CCCCO1)S(=O)(=O)CCC(F)(F)F` (centres unmarked) [present compound (12), 3-(2-tetrahydropyran-2-yl)-2-(3,3,3-trifluoropropylsulfonyl)propionitrile], in assay [1], the pest or weed control at 3.5 ppm is at least 95%. For the same compound, the pest or weed control at 500 ppm in assay [2] was 100%; in assay [3], at least 90%.
`N#CC(CC1CCC(=O)O1)S(=O)(=O)CCC(F)(F)F` (centres unmarked) [present compound (13), 3-(2-oxotetrahydrofuran-5-yl)-2-(3,3,3-trifluoropropylsulfonyl)propionitrile]: in assay [3], the pest or weed control at 500 ppm is at least 90%.
Consider `COC(=O)N1CCC(C(C#N)S(=O)(=O)CCC(F)(F)C(F)(F)F)CC1` (centres unmarked) [present compound (15), 2-[N-(methoxycarbonyl)piperidin-4-yl]-2-(3,3,4,4,4-pentafluorobutylsulfonyl)acetonitrile], for which the pest or weed control at 3.5 ppm in assay [1] is at least 95%. In addition, the pest or weed control at 500 ppm in assay [2] is 100%; in assay [3], at least 90%.
For `N#CC(C1CCSCC1)S(=O)(=O)CCC(F)(F)C(F)(F)F` (centres unmarked) [present compound (16), 2-(tetrahydrothiopyran-4-yl)-2-(3,3,4,4,4-pentafluorobutylsulfonyl)acetonitrile] the same measures were at least 95%, 100% and at least 90%.
`N#CC(CCC(F)(F)F)S(=O)(=O)CC1CCCO1` (centres unmarked) [present compound (17), 5,5,5-trifluoro-2-(tetrahydrofuran-2-ylmethanesulfonyl)pentanenitrile]: the pest or weed control at 500 ppm in assay [3] is at least 90%.
`N#CC(CCC(F)(F)C(F)(F)F)S(=O)(=O)CC1CCCO1` (centres unmarked) [present compound (18), 5,5,6,6,6-pentafluoro-2-(tetrahydrofuran-2-ylmethanesulfonyl)hexanenitrile]: in assay [1], the pest or weed control at 3.5 ppm is at least 95%. Besides, the pest or weed control at 500 ppm in assay [2] is 100%; in assay [3] it was at least 90%.
As to `N#CC(CCCC(F)(F)C(F)(F)F)S(=O)(=O)CC1CCCO1` (centres unmarked) [present compound (19), 6,6,7,7,7-pentafluoro-2-(tetrahydrofuran-2-ylmethanesulfonyl)heptanenitrile], in assay [1], the pest or weed control at 3.5 ppm was at least 95%. In assay [3], the pest or weed control at 500 ppm was at least 90%.
On to `N#CC(CCC(F)(F)C(F)(F)F)S(=O)(=O)CCC1OCCO1` (centres unmarked) [present compound (21), 5,5,6,6,6,-pentafluoro-2-[2-(1,3-dioxolan-2-yl)ethanesulfonyl]pentanenitrile], for which, in assay [1], the pest or weed control at 3.5 ppm is at least 95%. Besides, the pest or weed control at 500 ppm in assay [3] is at least 90%.
Turning to `COC(=O)C(CCC(F)(F)C(F)(F)F)S(=O)(=O)CC1CCCO1` (centres unmarked) [present compound (25), methyl 5,5,6,6,6-pentafluoro-2-(tetrahydrofuran-2-ylmethanesulfonyl)hexanoate], the pest or weed control at 500 ppm in assay [3] was at least 90%.
